In patent US20240409585A1, “MACROCYCLIC IMMUNOMODULATORS” (priority 2021, published 2024) one finds IC50 data, which are given here for 13 compounds.

The target in this test is T1, Alexa fluor-647 labeled human PD-L1-Ig binding to Jurkat cell line over-expressing human PD-1 (Homo sapiens, UniProt Q15116).
T1 construct: expressed in transfected cells; host or cells: Jurkat
The test can be described thus: Jurkat-PD-1 Cell Binding High-Content Screening Assay (CBA): Method 3 (Alexa fluor-647 labeled PD-L1-Ig). Conditions: Jurkat-PD-1 cells, Alexa fluor-647 labeled PD-L1-Ig 177 nM. The essentials:
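Readout by high-content imaging of PFA-fixed, Hoechst-stained cells after 1 h with 177 nM (final) Alexa fluor-647 PD-L1-Ig. Compound was added first to hPD-1 Jurkat cells in RPMI plus 10% FCS for 2 h at 37 °C.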

[1] abbreviates: head μM, read-out: CBA Method 3 μM.

Read-outs that look alike come from different tables or passages of the source. Numbered stars: 1 amine (or outer) side, 2 acyl side, 3 side chain; on linkers, the order of the positions; unused ones are H or OH. Bridge positions count the residues as written; N and C are the ends. Square brackets hold non-standard residues; d marks the D form. Peptide text beside a SMILES is read from it. * marks the point of attachment. Bip(4'-COOH) = N[C@@H](Cc1ccc(-c2ccc(C(=O)O)cc2)cc1)C(=O)O; Bip(4'-NHAc) = CC(=O)Nc1ccc(-c2ccc(C[C@H](N)C(=O)O)cc2)cc1; X32 = N=C(N)NCc1ccc(C[C@H](N[*:1])C(=O)[*:2])cc1; Phe(3-CF3) = N[C@@H](Cc1cccc(C(F)(F)F)c1)C(=O)O; Ala(morpholin-4-yl) = N[C@@H](CN1CCOCC1)C(=O)O; Phe(4-COOH) = N[C@@H](Cc1ccc(C(=O)O)cc1)C(=O)O; Bip = N[C@@H](Cc1ccc(-c2ccccc2)cc1)C(=O)O; Abu(3R-NH2) = C[C@@H](N)[C@H](N)C(=O)O; Phe(3-Me) = Cc1cccc(C[C@H](N)C(=O)O)c1; Val(3-OH) = CC(C)(O)[C@H](N)C(=O)O; hPhe = N[C@@H](CCc1ccccc1)C(=O)O; Cha = N[C@@H](CC1CCCCC1)C(=O)O; aThr = C[C@H](O)[C@H](N)C(=O)O; Suc = O=C(CCC(=O)[*:2])[*:1]; Carboxymethyl = O=C(O)C*; NMeA = CN[C@@H](C)C(=O)O; Orn = NCCC[C@H](N)C(=O)O; Dab = NCC[C@H](N)C(=O)O; Dap = NC[C@H](N)C(=O)O; X43 = c1coc(N*)n1

T1 sequence (Q15116 25-288): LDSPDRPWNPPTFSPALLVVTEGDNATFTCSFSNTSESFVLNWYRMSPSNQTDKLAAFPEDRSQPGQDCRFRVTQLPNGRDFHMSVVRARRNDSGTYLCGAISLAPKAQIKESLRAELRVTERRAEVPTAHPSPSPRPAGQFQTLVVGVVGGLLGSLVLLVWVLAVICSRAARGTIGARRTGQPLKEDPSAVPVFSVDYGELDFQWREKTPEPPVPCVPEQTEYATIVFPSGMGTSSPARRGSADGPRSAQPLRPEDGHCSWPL

With `Cc1cccc(C[C@@H]2NC(=O)[C@H](CC(=O)O)NC(=O)[C@H](Cc3ccc(OCC(=O)O)cc3)NC(=O)[C@H](Cc3ccc(CNC(=N)N)cc3)NC(=O)CSC[C@@H](C(=O)N[C@@H](CCN)C(N)=O)NC(=O)[C@H](CCCN)NC(=O)[C@H](C(C)C)NC(=O)[C@H](CC3CCCCC3)NC(=O)[C@H](CCN)NC(=O)[C@@H](CC(C)C)NC(=O)[C@H](C)N(C)C(=O)[C@H](CCC(N)=O)NC(=O)[C@H](Cc3ccc(-c4ccccc4)cc3)NC(=O)[C@H](Cc3ccc(C(=O)O)cc3)NC2=O)c1` [Example 5278] ({CH2CO}-[X32]Y(Carboxymethyl)D[Phe(3-Me)][Phe(4-COOH)][Bip]Q[NMeA][dL][Dab][Cha]V[Orn]C[Dab]-NH2; thioether N-14), the IC50 under setting [1] is 0.31 µM.

Turning to `CC(C)C[C@H]1NC(=O)[C@H](C)N(C)C(=O)[C@H](CCC(N)=O)NC(=O)[C@H](Cc2ccc(-c3ccccc3)cc2)NC(=O)[C@H](CCc2ccccc2)NC(=O)[C@H](Cc2cccc(C(F)(F)F)c2)NC(=O)[C@H](CC(=O)O)NC(=O)[C@H](Cc2ccc(OCC(=O)O)cc2)NC(=O)[C@H]([C@@H](C)N)NC(=O)CSC[C@@H](C(=O)N[C@@H](CCN)C(N)=O)NC(=O)[C@H](CO)NC(=O)[C@H](C(C)(C)O)NC(=O)[C@H](CC2CCCCC2)NC(=O)[C@H](CCN)NC1=O` [Example 5227] ({CH2CO}-[Abu(3R-NH2)]Y(Carboxymethyl)D[Phe(3-CF3)][hPhe][Bip]Q[NMeA][dL][Dab][Cha][Val(3-OH)]SC[Dab]-NH2; thioether N-14), the IC50 (nM, read-out: CBA Method 3) was 0.0015 µM.

On to `CC(=O)Nc1ccc(-c2ccc(C[C@@H]3NC(=O)[C@H](Cc4cccc(C(F)(F)F)c4)NC(=O)[C@H](CC(=O)O)NC(=O)[C@H](Cc4ccc(C(=O)O)cc4)NC(=O)[C@H](CN4CCOCC4)NC(=O)CSC[C@@H](C(=O)N[C@@H](CCN)C(N)=O)NC(=O)[C@H](CCC(=O)O)NC(=O)[C@H](C(C)C)NC(=O)[C@H](CC4CCCCC4)NC(=O)[C@H](CCN)NC(=O)[C@@H](CC(C)C)NC(=O)[C@H](C)N(C)C(=O)[C@H](Cc4ccc(C(=O)O)cc4)NC(=O)[C@H](Cc4ccc(-c5ccccc5)cc4)NC3=O)cc2)cc1` [Example 5159] ({CH2CO}-[Ala(morpholin-4-yl)][Phe(4-COOH)]D[Phe(3-CF3)][Bip(4'-NHAc)][Bip][Phe(4-COOH)][NMeA][dL][Dab][Cha]VEC[Dab]-NH2; thioether N-14), for which the IC50 under setting [1] is 0.04 µM.

Turning to `Cc1cccc(C[C@@H]2NC(=O)[C@H](CC(=O)O)NC(=O)[C@H](Cc3ccc(OCC(=O)O)cc3)NC(=O)[C@H](CC3CCCCC3)NC(=O)CSC[C@@H](C(=O)N[C@@H](CCN)C(N)=O)NC(=O)[C@H](CCCN)NC(=O)[C@H](C(C)C)NC(=O)[C@H](CCN)NC(=O)[C@H](CCN)NC(=O)[C@@H](CC(C)C)NC(=O)[C@H](C)N(C)C(=O)[C@H](CCC(N)=O)NC(=O)[C@H](Cc3ccc(-c4ccccc4)cc3)NC(=O)[C@H](Cc3ccc(C(=O)O)cc3)NC2=O)c1` [Example 5205] ({CH2CO}-[Cha]Y(Carboxymethyl)D[Phe(3-Me)][Phe(4-COOH)][Bip]Q[NMeA][dL][Dab][Dab]V[Orn]C[Dab]-NH2; thioether N-14), the IC50 under setting [1] worked out at 0.16 µM.

As for `CC(C)C[C@H]1NC(=O)[C@H](C)N(C)C(=O)[C@H](Cc2ccc(C(=O)O)cc2)NC(=O)[C@H](Cc2ccc(-c3ccccc3)cc2)NC(=O)[C@H](Cc2ccc(C(=O)O)cc2)NC(=O)[C@H](Cc2cccc(C(F)(F)F)c2)NC(=O)[C@H](CC(=O)O)NC(=O)[C@H](Cc2ccc(C(=O)O)cc2)NC(=O)[C@H](CN2CCOCC2)NC(=O)CSC[C@@H](C(=O)N[C@@H](CCN)C(N)=O)NC(=O)[C@H](CNC(=O)CCC(=O)O)NC(=O)[C@H](C(C)C)NC(=O)[C@H](CC2CCCCC2)NC(=O)[C@H](CCN)NC1=O` [Example 5142] ({CH2CO}-[Ala(morpholin-4-yl)][Phe(4-COOH)]D[Phe(3-CF3)][Phe(4-COOH)][Bip][Phe(4-COOH)][NMeA][dL][Dab][Cha]V[Dap](Suc)C[Dab]-NH2; thioether N-14), the IC50 (nM, read-out: CBA Method 3) stood at 0.0033 µM.

On to `Cc1cccc(C[C@@H]2NC(=O)[C@H](CC(=O)O)NC(=O)[C@H](Cc3ccc(OCC(=O)O)cc3)NC(=O)[C@H](C)NC(=O)CSC[C@@H](C(=O)N[C@@H](CCN)C(N)=O)NC(=O)[C@H](CCC(=O)O)NC(=O)[C@H](C(C)C)NC(=O)[C@H](CC3CCCCC3)NC(=O)[C@H](CCN)NC(=O)[C@@H](CC(C)C)NC(=O)[C@H](C)N(C)C(=O)[C@H](Cc3ccc(OCC(=O)O)cc3)NC(=O)[C@H](Cc3ccc(-c4ccccc4)cc3)NC(=O)[C@H](Cc3ccc(OCC(=O)O)cc3)NC2=O)c1` [Example 5139] ({CH2CO}-AY(Carboxymethyl)D[Phe(3-Me)]Y(Carboxymethyl)[Bip]Y(Carboxymethyl)[NMeA][dL][Dab][Cha]VEC[Dab]-NH2; thioether N-14), for which, under setting [1], the IC50 was 0.03 µM.

In the case of `Cc1cccc(C[C@@H]2NC(=O)[C@H](CC(=O)O)NC(=O)[C@H](Cc3ccc(OCC(=O)O)cc3)NC(=O)[C@H](Cc3ccc(OCC(=O)O)cc3)NC(=O)CSC[C@@H](C(=O)N[C@@H](CCN)C(N)=O)NC(=O)[C@H](CCCN)NC(=O)[C@H](C(C)C)NC(=O)[C@H](CC3CCCCC3)NC(=O)[C@H](CCN)NC(=O)[C@@H](CC(C)C)NC(=O)[C@H](C)N(C)C(=O)[C@H](CCC(N)=O)NC(=O)[C@H](Cc3ccc(-c4ccccc4)cc3)NC(=O)[C@H](Cc3ccc(C(=O)O)cc3)NC2=O)c1` [Example 5168] ({CH2CO}-Y(Carboxymethyl)Y(Carboxymethyl)D[Phe(3-Me)][Phe(4-COOH)][Bip]Q[NMeA][dL][Dab][Cha]V[Orn]C[Dab]-NH2; thioether N-14), the IC50 (nM, read-out: CBA Method 3) turned out to be 0.0014 µM.

Turning to `CC(C)C[C@H]1NC(=O)[C@H](C)N(C)C(=O)[C@H](CCC(N)=O)NC(=O)[C@H](Cc2ccc(-c3ccccc3)cc2)NC(=O)[C@H](CCc2ccccc2)NC(=O)[C@H](Cc2cccc(C(F)(F)F)c2)NC(=O)[C@H](CC(=O)O)NC(=O)[C@H](Cc2ccc(OCC(=O)O)cc2)NC(=O)[C@H]([C@@H](C)N)NC(=O)CSC[C@@H](C(=O)N[C@@H](CCN)C(N)=O)NC(=O)[C@H](CCCN)NC(=O)[C@H](C(C)C)NC(=O)[C@H](CC2CCCCC2)NC(=O)[C@H](CCN)NC1=O` [Example 5219] ({CH2CO}-[Abu(3R-NH2)]Y(Carboxymethyl)D[Phe(3-CF3)][hPhe][Bip]Q[NMeA][dL][Dab][Cha]V[Orn]C[Dab]-NH2; thioether N-14), the IC50 under setting [1] was determined as 0.1 µM.

In the case of `CC(C)C[C@H]1NC(=O)[C@H](C)N(C)C(=O)[C@H](CCCN)NC(=O)[C@H](Cc2ccc(-c3ccccc3)cc2)NC(=O)[C@H](Cc2ccc(-c3ccc(C(=O)O)cc3)cc2)NC(=O)[C@H](Cc2cccc(C(F)(F)F)c2)NC(=O)[C@H](CC(=O)Nc2ncco2)NC(=O)[C@H](Cc2ccc(-c3ccc(C(=O)O)cc3)cc2)NC(=O)[C@H](Cc2ccc(OCC(=O)O)cc2)NC(=O)CSC[C@@H](C(=O)N[C@@H](CCN)C(N)=O)NC(=O)[C@H](CC(N)=O)NC(=O)[C@H](C(C)C)NC(=O)[C@H](CC2CCCCC2)NC(=O)[C@H](CCN)NC1=O` [Example 5116] ({CH2CO}-Y(Carboxymethyl)[Bip(4'-COOH)]D(X43)[Phe(3-CF3)][Bip(4'-COOH)][Bip][Orn][NMeA][dL][Dab][Cha]VNC[Dab]-NH2; thioether N-14), under setting [1], the IC50 was found to be 0.33 µM.

With `Cc1cccc(C[C@@H]2NC(=O)[C@H](CC(=O)O)NC(=O)[C@H](Cc3ccc(OCC(=O)O)cc3)NC(=O)[C@H](C(C)(C)O)NC(=O)CSC[C@@H](C(=O)N[C@@H](CCN)C(N)=O)NC(=O)[C@H](CCCN)NC(=O)[C@H](C(C)C)NC(=O)[C@H](CC3CCCCC3)NC(=O)[C@H](CCN)NC(=O)[C@@H](CC(C)C)NC(=O)[C@H](C)N(C)C(=O)[C@H](CCC(N)=O)NC(=O)[C@H](Cc3ccc(-c4ccccc4)cc3)NC(=O)[C@H](Cc3ccc(C(=O)O)cc3)NC2=O)c1` [Example 5275] ({CH2CO}-[Val(3-OH)]Y(Carboxymethyl)D[Phe(3-Me)][Phe(4-COOH)][Bip]Q[NMeA][dL][Dab][Cha]V[Orn]C[Dab]-NH2; thioether N-14), where the note is “nM, read-out: CBA Method 3”, the IC50 was found to be 0.0016 µM.

With `CC(C)C[C@H]1NC(=O)[C@H](C)N(C)C(=O)[C@H](CCC(N)=O)NC(=O)[C@H](Cc2ccc(-c3ccccc3)cc2)NC(=O)[C@H](Cc2ccc(-c3ccc(C(=O)O)cc3)cc2)NC(=O)[C@H](Cc2cccc(C(F)(F)F)c2)NC(=O)[C@H](CC(=O)O)NC(=O)[C@H](Cc2ccc(C(=O)O)cc2)NC(=O)[C@H](CC2CCCCC2)NC(=O)CSC[C@@H](C(=O)N[C@@H](CCN)C(N)=O)NC(=O)[C@H](CCCN)NC(=O)[C@H](C(C)C)NC(=O)[C@H](CC2CCCCC2)NC(=O)[C@H](CCN)NC1=O` [Example 5165] ({CH2CO}-[Cha][Phe(4-COOH)]D[Phe(3-CF3)][Bip(4'-COOH)][Bip]Q[NMeA][dL][Dab][Cha]V[Orn]C[Dab]-NH2; thioether N-14), the IC50 under setting [1] is 0.03 µM.

For `CC(C)[C@@H]1NC(=O)[C@H](Cc2c[nH]c3ccccc23)NC(=O)[C@H](CC(=O)O)NC(=O)[C@H](Cc2ccc(O)cc2)NC(=O)[C@H](CC2CCCCC2)NC(=O)CSC[C@@H](C(=O)N[C@@H](CCN)C(N)=O)NC(=O)[C@H]([C@H](C)O)NC(=O)[C@H](C(C)(C)O)NC(=O)[C@H](CC2CCCCC2)NC(=O)[C@H](CCC(=O)O)NC(=O)[C@@H](C)NC(=O)[C@H](C)N(C)C(=O)[C@H](C(C)C)NC(=O)[C@H](Cc2ccc(-c3ccccc3)cc2)NC1=O` [Example 5150] ({CH2CO}-[Cha]YDWV[Bip]V[NMeA][dA]E[Cha][Val(3-OH)][aThr]C[Dab]-NH2; thioether N-14), the IC50 under setting [1] came to 0.06 µM.

For the compound `CC(=O)Nc1ccc(-c2ccc(C[C@@H]3NC(=O)[C@H](Cc4cccc(C)c4)NC(=O)[C@H](CC(=O)O)NC(=O)[C@H](Cc4ccc(C(=O)O)cc4)NC(=O)[C@H](CC4CCCCC4)NC(=O)CSC[C@@H](C(=O)N[C@@H](CCN)C(N)=O)NC(=O)[C@H](CCC(N)=O)NC(=O)[C@H](C(C)C)NC(=O)[C@H](CC4CCCCC4)NC(=O)[C@H](CCN)NC(=O)[C@@H](CC(C)C)NC(=O)[C@H](C)N(C)C(=O)[C@H](Cc4ccc(C(=O)O)cc4)NC(=O)[C@H](Cc4ccc(-c5ccccc5)cc4)NC3=O)cc2)cc1` [Example 5200] ({CH2CO}-[Cha][Phe(4-COOH)]D[Phe(3-Me)][Bip(4'-NHAc)][Bip][Phe(4-COOH)][NMeA][dL][Dab][Cha]VQC[Dab]-NH2; thioether N-14), the IC50 under setting [1] stood at 0.02 µM.
